# Experimental data published in PubChem BioAssay (NCI).
#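 Step 1: Grow cells in 96-well plates. Step 2: Expose to compound for 48 hours at 5 concentrations. Step 3: Interpolate endpoints linearly; if unreached, use highest concentration. GI50 = concentration required for 50% inhibition of growth. The concentration for full growth arrest is given as TGI.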
# Assays:
# Assay in all cases: NCI tumour cell line growth inhibition, 48 h
# 786-0 renal = system: 786-0 renal
# A498 renal = system: A498 renal
# A549 NSCLC = system: A549 NSCLC
# ACHN renal = system: ACHN renal
# BT-549 breast = system: BT-549 breast
# CAKI-1 renal = system: CAKI-1 renal
# CCRF-CEM leukemia = system: CCRF-CEM leukemia
# COLO 205 colon = system: COLO 205 colon
# DU-145 prostate = system: DU-145 prostate
# EKVX NSCLC = system: EKVX NSCLC
# HCC-2998 colon = system: HCC-2998 colon
# HCT-116 colon = system: HCT-116 colon
# HCT-15 colon = system: HCT-15 colon
# HL-60(TB) leukemia = system: HL-60(TB) leukemia
# HOP-62 NSCLC = system: HOP-62 NSCLC
# HOP-92 NSCLC = system: HOP-92 NSCLC
# HS 578T breast = system: HS 578T breast
# HT29 colon = system: HT29 colon
# IGROV1 ovarian = system: IGROV1 ovarian
# K-562 leukemia = system: K-562 leukemia
# KM12 colon = system: KM12 colon
# LOX IMVI melanoma = system: LOX IMVI melanoma
# M14 melanoma = system: M14 melanoma
# MALME-3M melanoma = system: MALME-3M melanoma
# MCF7 breast = system: MCF7 breast
# MDA-MB-231 breast = system: MDA-MB-231 breast
# MDA-MB-435 = system: MDA-MB-435
# MOLT-4 leukemia = system: MOLT-4 leukemia
# NCI-H226 lung = system: NCI-H226 lung
# NCI-H23 lung = system: NCI-H23 lung
# NCI-H460 lung = system: NCI-H460 lung
# NCI-H522 lung = system: NCI-H522 lung
# NCI/ADR-RES ovarian = system: NCI/ADR-RES ovarian
# OVCAR-3 ovarian = system: OVCAR-3 ovarian
# OVCAR-4 ovarian = system: OVCAR-4 ovarian
# OVCAR-5 ovarian = system: OVCAR-5 ovarian
# OVCAR-8 ovarian = system: OVCAR-8 ovarian
# PC-3 prostate = system: PC-3 prostate
# RPMI-8226 leukemia = system: RPMI-8226 leukemia
# RXF 393 renal = system: RXF 393 renal
# SF-268 CNS = system: SF-268 CNS
# SF-295 CNS = system: SF-295 CNS
# SF-539 CNS = system: SF-539 CNS
# SK-MEL-2 melanoma = system: SK-MEL-2 melanoma
# SK-MEL-28 melanoma = system: SK-MEL-28 melanoma
# SK-MEL-5 melanoma = system: SK-MEL-5 melanoma
# SK-OV-3 ovarian = system: SK-OV-3 ovarian
# SN12C renal = system: SN12C renal
# SNB-19 CNS = system: SNB-19 CNS
# SNB-75 CNS = system: SNB-75 CNS
# SR leukemia = system: SR leukemia
# SW-620 colon = system: SW-620 colon
# T-47D breast = system: T-47D breast
# TK-10 renal = system: TK-10 renal
# U251 CNS = system: U251 CNS
# UACC-257 melanoma = system: UACC-257 melanoma
# UACC-62 melanoma = system: UACC-62 melanoma
# UO-31 renal = system: UO-31 renal
smiles,measurement,setting,value
CCOC(=O)c1sc(NCC(=O)Nc2cccc([N+](=O)[O-])c2)c(C(=O)OCC)c1C,GI50,786-0 renal,254 nM
same,TGI,786-0 renal,907 nM
same,GI50,A498 renal,309 nM
same,TGI,A498 renal,1160 nM
same,GI50,A549 NSCLC,461 nM
same,TGI,A549 NSCLC,3060 nM
same,GI50,ACHN renal,289 nM
same,TGI,ACHN renal,797 nM
same,GI50,BT-549 breast,258 nM
same,TGI,BT-549 breast,769 nM
same,GI50,CAKI-1 renal,267 nM
same,TGI,CAKI-1 renal,810 nM
same,GI50,CCRF-CEM leukemia,288 nM
same,GI50,COLO 205 colon,287 nM
same,TGI,COLO 205 colon,846 nM
same,GI50,DU-145 prostate,760 nM
same,TGI,DU-145 prostate,6320 nM
same,GI50,EKVX NSCLC,1650 nM
same,TGI,EKVX NSCLC,4530 nM
same,GI50,HCC-2998 colon,1400 nM
same,TGI,HCC-2998 colon,3470 nM
same,GI50,HCT-116 colon,303 nM
same,TGI,HCT-116 colon,1360 nM
same,GI50,HCT-15 colon,286 nM
same,TGI,HCT-15 colon,1840 nM
same,GI50,HL-60(TB) leukemia,464 nM
same,GI50,HOP-62 NSCLC,1020 nM
same,TGI,HOP-62 NSCLC,4130 nM
same,GI50,HOP-92 NSCLC,221 nM
same,TGI,HOP-92 NSCLC,873 nM
same,GI50,HS 578T breast,270 nM
same,TGI,HS 578T breast,1030 nM
same,GI50,HT29 colon,272 nM
same,TGI,HT29 colon,821 nM
same,GI50,IGROV1 ovarian,238 nM
same,TGI,IGROV1 ovarian,693 nM
same,GI50,K-562 leukemia,333 nM
same,TGI,K-562 leukemia,> 36700 nM
same,GI50,KM12 colon,539 nM
same,TGI,KM12 colon,3970 nM
same,GI50,LOX IMVI melanoma,172 nM
same,TGI,LOX IMVI melanoma,358 nM
same,GI50,M14 melanoma,329 nM
same,TGI,M14 melanoma,1300 nM
same,GI50,MALME-3M melanoma,231 nM
same,TGI,MALME-3M melanoma,598 nM
same,GI50,MCF7 breast,274 nM
same,TGI,MCF7 breast,1030 nM
same,GI50,MDA-MB-231 breast,1230 nM
same,TGI,MDA-MB-231 breast,3850 nM
same,GI50,MDA-MB-435,486 nM
same,TGI,MDA-MB-435,1760 nM
same,GI50,MOLT-4 leukemia,342 nM
same,TGI,MOLT-4 leukemia,> 33200 nM
same,GI50,NCI-H226 lung,230 nM
same,TGI,NCI-H226 lung,602 nM
same,GI50,NCI-H23 lung,241 nM
same,TGI,NCI-H23 lung,665 nM
same,GI50,NCI-H460 lung,313 nM
same,TGI,NCI-H460 lung,963 nM
same,GI50,NCI-H522 lung,251 nM
same,TGI,NCI-H522 lung,757 nM
same,GI50,NCI/ADR-RES ovarian,319 nM
same,TGI,NCI/ADR-RES ovarian,1580 nM
same,GI50,OVCAR-3 ovarian,376 nM
same,TGI,OVCAR-3 ovarian,1750 nM
same,GI50,OVCAR-4 ovarian,897 nM
same,TGI,OVCAR-4 ovarian,5180 nM
same,GI50,OVCAR-5 ovarian,283 nM
same,TGI,OVCAR-5 ovarian,824 nM
same,GI50,OVCAR-8 ovarian,375 nM
same,GI50,PC-3 prostate,229 nM
same,TGI,PC-3 prostate,598 nM
same,GI50,RPMI-8226 leukemia,366 nM
same,TGI,RPMI-8226 leukemia,1750 nM
same,GI50,RXF 393 renal,175 nM
same,TGI,RXF 393 renal,348 nM
same,GI50,SF-268 CNS,961 nM
same,TGI,SF-268 CNS,3740 nM
same,GI50,SF-295 CNS,543 nM
same,TGI,SF-295 CNS,3770 nM
same,GI50,SF-539 CNS,300 nM
same,TGI,SF-539 CNS,880 nM
same,GI50,SK-MEL-2 melanoma,1770 nM
same,TGI,SK-MEL-2 melanoma,4790 nM
same,GI50,SK-MEL-28 melanoma,291 nM
same,TGI,SK-MEL-28 melanoma,883 nM
same,GI50,SK-MEL-5 melanoma,346 nM
same,TGI,SK-MEL-5 melanoma,1230 nM
same,GI50,SK-OV-3 ovarian,307 nM
same,TGI,SK-OV-3 ovarian,838 nM
same,GI50,SN12C renal,285 nM
same,TGI,SN12C renal,930 nM
same,GI50,SNB-19 CNS,496 nM
same,TGI,SNB-19 CNS,4740 nM
same,GI50,SNB-75 CNS,790 nM
same,TGI,SNB-75 CNS,3440 nM
same,GI50,SR leukemia,354 nM
same,GI50,SW-620 colon,325 nM
same,TGI,SW-620 colon,1900 nM
same,GI50,T-47D breast,1270 nM
same,TGI,T-47D breast,3880 nM
same,GI50,TK-10 renal,263 nM
same,TGI,TK-10 renal,1270 nM
same,GI50,U251 CNS,274 nM
same,TGI,U251 CNS,1080 nM
same,GI50,UACC-257 melanoma,1060 nM
same,TGI,UACC-257 melanoma,5240 nM
same,GI50,UACC-62 melanoma,173 nM
same,TGI,UACC-62 melanoma,381 nM
same,GI50,UO-31 renal,202 nM
same,TGI,UO-31 renal,522 nM
